Several values for one entry are separate records, joined by “and”; a condition that tells them apart may be missing. Identical values can stand only once. Like-named read-outs stand apart in the source and are kept apart here.
Legend:
[1] = test system: male Wistar rats; assay: Wet weight ratio (Fulton index) RV/(LV+SP), right ventricular hypertrophy, hypoxia PAH study; type: in vivo, rat; settings: FIG. 2, RRx-001 5 mg/kg or Bosentan 50 mg/kg mixed with blood; for wet weight ratio RV/(LV+SP), lower value: PAH group 0.38, control 0.28; for wet weight ratio RV/(LV+SP), median value: PAH group 0.43, control 0.31; for wet weight ratio RV/(LV+SP), upper value: PAH group 0.44, control 0.33
Excerpt: A distribution of the collected data is plotted on the graph for the 4 groups of male Wistar rats: the control group, the PAH group, the RRx-001 group, and the Bosentan group. The calculated wet weight ratio is intended to be an indicator of right ventricular hypertrophy.
To measure the wet weight ratio, the heart was excised, the atria were removed, and the wall of the right ventrical (RV) was separated from the heart. Tissues were blotted and weighed. […] The elevated pulmonary arterial pressure was paralleled by an increase in systolic pressure, and right ventricular hypertrophy according to the Fulton index.

[2] = test system: male Wistar rats; assay: Mean pulmonary artery pressure (mPAP) by catheter, intermittent hypoxia PAH study; type: in vivo, rat; settings: FIG. 1A, intermittent hypoxia FiO2 10%, RRx-001 5 mg/kg or Bosentan 50 mg/kg mixed with blood, tail injection; for mPAP, lower value of group distribution: PAH group 27, control 16; for mPAP, median value of group distribution: PAH group 30, control 17, RRx-001 p<0.05 vs PAH; for mPAP, upper value of group distribution: PAH group 33, control 20
Procedure: (§1) The study exposed 18 male Wistar rats to an isobaric chamber with intermittent hypoxia where the fraction of inspired oxygen (FiO2) is 10%.
The mPAP was recorded in FIG. 1A using a catheter introduced into the right jugular vein of the male Wistar rats and passed across the tricuspid valve and a right ventricle into the pulmonary artery. A distribution of the mPAP results for the various groups is plotted in FIG. 1A.

[3] = test system: male Wistar rats; assay: Lung morphological changes: relative medial wall thickness and area, hypoxia PAH study; type: in vivo, rat; settings: RRx-001 5 mg/kg or Bosentan 50 mg/kg mixed with blood; for medial wall thickness relative to external diameter, lower value / medial wall thickness relative to external diameter, median value / medial wall thickness relative to external diameter, upper value: FIG. 4A; for medial wall thickness relative to external diameter, lower value: PAH group 0.13, control 0.07; for medial wall thickness relative to external diameter, median value: PAH group 0.14, control 0.07; for medial wall thickness relative to external diameter, upper value: PAH group 0.15, control 0.08; for medial wall area relative to lumen area, lower value / medial wall area relative to lumen area, median value / medial wall area relative to lumen area, upper value: FIG. 4B; for medial wall area relative to lumen area, lower value: PAH group 0.16, control 0.11; for medial wall area relative to lumen area, median value: PAH group 0.17, control 0.12; for medial wall area relative to lumen area, upper value: PAH group 0.21, control 0.14
Procedure: To collect the data, male Wistar rats lungs were removed and fixed in paraformaldehyde, then dehydrated and embedded in paraffin for sectioning. The relative medial thickness and relative medial areas were calculated from vessels showing a clearly defined external and internal elastic lamina.

[4] = test system: male Wistar rats; assay: Mean aortic pressure (mAP) by arterial catheter, intermittent hypoxia PAH study; type: in vivo, rat; settings: FIG. 1B, RRx-001 5 mg/kg or Bosentan 50 mg/kg mixed with blood; for mAP, lower value of group distribution: PAH group 117, control 98; for mAP, median value of group distribution: PAH group 137, control 113, RRx-001 p<0.05 vs PAH; for mAP, upper value of group distribution: PAH group 147, control 116
Procedure: as §1
The second graph, FIG. 1B, is a distribution of mean aortic pressure (mAP) that was recorded by an arterial catheter inserted via the carotid artery of the male Wistar rats. The PAH group distribution has an upper value for mAP of approximately 147 mmHg, a median value for the mAP of approximately 137 mmHg, and a lower value for the mAP of approximately 117 mmHg. The RRx-001 group has an upper value for the mAP of approximately 134 mmHg, a median value for the mAP of approximately 121 mmHg, and a lower value for the mAP of approximately 116 mmHg. The p value as determined for the mAP results between the PAH group and the RRx-001 group is less than 0.05.

[5] = test system: male Wistar rats; assay: Echocardiograph: ejection fraction and fractional shortening, hypoxia PAH study; settings: RRx-001 5 mg/kg or Bosentan 50 mg/kg mixed with blood; for ejection fraction, lower value / ejection fraction, median value / ejection fraction, upper value: FIG. 3A; for ejection fraction, lower value: PAH group 49%, control 65%; for ejection fraction, median value: PAH group 51%, control 68%; for ejection fraction, median value / fractional shortening, median value: RRx-001 p<0.05 vs PAH; for ejection fraction, upper value: PAH group 59%, control 72%; for fractional shortening, median value / fractional shortening, upper value: FIG. 3B; for fractional shortening, median value: PAH group 31%, control 42%; for fractional shortening, upper value: PAH group 33%, control 44%
Procedure: The male Wistar rats exposed to hypoxia were then divided into 3 groups for the study. A first group of 6 male Wistar rats were untreated and labeled “PAH”. A second group of 6 male Wistar rats were treated with the RRx-001. A third group of 6 male Wistar rats were treated with Bosentan, which is a drug that is used to treat PAH.
Treatment for the second group of male Wistar rats comprised mixing 5 mg/kg RRx-001 with blood and administering the mixture via tail injection before the hypoxia exposure. Similarly, treatment for the third group of male Wistar rats comprised mixing 50 mg/kg Bosentan with blood and administering the mixture daily via tail injection before the hypoxia exposure.

[6] = test system: Wistar rats; settings: FIG. 9, blood
[7] = test system: male Wistar rats; type: in vivo, rat; settings: FIG. 5A, hypoxia 1 week
Procedure: (§2) Male Wistar rats were kept in an isobaric hypoxic chamber with intermittent hypoxia (FiO2=10%) for (1) week (6 hours/day, 6 day/week). […] For administration, the RRx-001 (10 mg/kg) was mixed with blood and injected via the tail at the beginning of hypoxia exposure every day. […] Untreated control animals were not administered any agents and the SHAM (Control) group was not subjected to hypoxia.
Mean pulmonary pressure (mPAP) was recorded using a catheter introduced in the right jugular vein and passed across the tricuspid valve and right ventricle into the pulmonary artery.

[8] = test system: male Wistar rats; type: in vivo, rat
Procedure: as §2
Mean aortic pressure (mAP) was recorded by an arterial catheter inserted via the carotid artery.

[9] = test system: male Wistar rats; type: in vivo, rat; remark: listed apart in the source
Procedure: To measure the wet weight ratio, the heart was excised, the atria were removed, and the wall of the right ventrical (RV) was separated from the heart. Tissues were blotted and weighed.
as §2
The wet weight ratio is an indicator of right ventricle hypertrophy. The wet weight ratios were measured according to the same procedure as set out in the description for FIG. 2.

[10] = test system: male Wistar rats; assay: H&E staining of the pulmonary arteriole (pulmonary vascular remodeling); type: in vivo, rat; settings: FIG. 10, hypoxia induced PAH rats
Excerpt: FIG. 10 depicts the effect of the RRx-001 and Bosentan on pulmonary vascular remodeling. Specifically, FIG. 10 depicts images showing H&E staining in the pulmonary arteriole.

Structure (SMILES)	wet weight ratio RV/(LV+SP), lower value [1]	wet weight ratio RV/(LV+SP), median value [1]	wet weight ratio RV/(LV+SP), upper value [1]	mPAP, lower value of group distribution [2]	mPAP, median value of group distribution [2]	mPAP, upper value of group distribution [2]	medial wall thickness relative to external diameter, lower value [3]	medial wall thickness relative to external diameter, median value [3]	medial wall thickness relative to external diameter, upper value [3]	medial wall area relative to lumen area, lower value [3]	medial wall area relative to lumen area, median value [3]	medial wall area relative to lumen area, upper value [3]	mAP, lower value of group distribution [4]	mAP, median value of group distribution [4]	mAP, upper value of group distribution [4]	ejection fraction, lower value [5]	ejection fraction, median value [5]	ejection fraction, upper value [5]	fractional shortening, median value [5]	fractional shortening, upper value [5]	other results
COc1ccccc1Oc1c(NS(=O)(=O)c2ccc(C(C)(C)C)cc2)nc(-c2ncccn2)nc1OCCO [Bosentan, reference compound]	approximately 0.32	approximately 0.35	approximately 0.39	approximately 21 mmHg	approximately 22 mmHg	approximately 24 mmHg	approximately 0.09	approximately 0.10	approximately 0.12	approximately 0.14	approximately 0.16	approximately 0.17	approximately 108 mmHg	approximately 120 mmHg	approximately 126 mmHg	approximately 52%	approximately 59%	approximately 63%	approximately 38%	approximately 42%	–
O=C(CBr)N1CC([N+](=O)[O-])([N+](=O)[O-])C1 [RRx-001, 2-bromo-1-(3,3-dinitroazetidin-1-yl) ethan-1-one]	approximately 0.34	approximately 0.35	approximately 0.39	approximately 23 mmHg	approximately 26 mmHg	approximately 28 mmHg	approximately 0.07	approximately 0.08	approximately 0.09	approximately 0.14	approximately 0.14	approximately 0.16	approximately 116 mmHg	approximately 121 mmHg	approximately 134 mmHg	approximately 60%	approximately 66%	approximately 69%	approximately 38%	approximately 39%	median metHb concentration ([6]; RRx-001 10 mg/kg + nitrite 10 mg/kg): ~3%; median metHb concentration ([6]; RRx-001 10 mg/kg + nitrite 20 mg/kg): ~7%; median metHb concentration ([6]; RRx-001 10 mg/kg + nitrite 40 mg/kg): ~12%; median metHb concentration ([6]; RRx-001 10 mg/kg, nitrite 0, saline/0 nitrite and controls 1%): approximately 1%; median mPAP ([7]; RRx-001 10 mg/kg + nitrite (NaNO2) 10 mg/kg s.c.): ~18 mmHg; median mPAP ([7]; RRx-001 10 mg/kg + nitrite (NaNO2) 20 mg/kg s.c.): ~16 mmHg; median mPAP ([7]; RRx-001 10 mg/kg + nitrite (NaNO2) 40 mg/kg s.c.): ~15 mmHg; median mPAP ([7]; RRx-001 10 mg/kg mixed with blood daily, nitrite 0, saline/0 nitrite 23, control 20, SHAM 17): approximately 17 mmHg; median mAP ([8]; FIG. 5B, hypoxia 1 week, RRx-001 10 mg/kg + nitrite 10 mg/kg s.c.): ~115 mmHg; median mAP ([8]; FIG. 5B, hypoxia 1 week, RRx-001 10 mg/kg + nitrite 20 mg/kg s.c.): ~107 mmHg; median mAP ([8]; FIG. 5B, hypoxia 1 week, RRx-001 10 mg/kg + nitrite 40 mg/kg s.c.): ~102 mmHg; median mAP ([8]; FIG. 5B, hypoxia 1 week, RRx-001 10 mg/kg mixed with blood daily, nitrite 0, saline/0 nitrite 137, control 124, SHAM 109): approximately 116 mmHg; median wet weight ratio RV/(LV+SP) ([9]; FIG. 7/8, hypoxia 1 week, RRx-001 10 mg/kg + nitrite 10 mg/kg): approximately 0.40 mg/mg; median wet weight ratio RV/(LV+SP) ([9]; FIG. 7/8, hypoxia 1 week, RRx-001 10 mg/kg + nitrite 20 mg/kg): ~0.35 mg/mg; median wet weight ratio RV/(LV+SP) ([9]; FIG. 7/8, hypoxia 1 week, RRx-001 10 mg/kg + nitrite 40 mg/kg): ~0.32 mg/mg; effect on right ventricle hypertrophy (wet weight ratio) ([9]; FIG. 7/8, hypoxia study with nitrite, result in words): has an effect on right ventricle hypertrophy; median wet weight ratio RV/(LV+SP) ([9]; rat, in vivo, 10 mg/kg): approximately 0.37 mg/mg; increases in pulmonary vascular wall thickness and muscularization of the pulmonary arteriole [10]: inhibited
O=NO [nitrite, reference compound]	–	–	–	–	–	–	–	–	–	–	–	–	–	–	–	–	–	–	–	–	effect of nitrite on mAP versus mPAP ([8]; rat, in vivo): systemic effect on mAP but less significant on mPAP; median mAP ([8]; rat, in vivo): ~122 mmHg and ~126 mmHg and ~120 mmHg

— patent publication US20260248761A1, “COMPOSITIONS AND METHODS FOR TREATMENT OF PULMONARY HYPERTENSION” (EpicentRx, Inc., priority 2022, published 2026)
